Reference: ChEMBL document CHEMBL5725824, “Aminochromane, aminothiochromane and amino-1,2,3,4-tetrahydroquinoline derivatives, pharmaceutical compositions containing them, and their use in therapy” (2017)

Molecular target: Sodium- and chloride-dependent glycine transporter 1 (Homo sapiens) (UniProt P48067)
Assay: Radioligand Binding Assay: 1. [3H]-Glycine uptake into recombinant CHO cells expressing human GlyT1: Human GlyT1c expressing recombinant hGlyT1c_5_CHO cells were plated at 20,000 cells per well in 96 well Cytostar-T scintillation microplates (Amersham Biosciences) and cultured to sub-confluency for 24 h. For glycine uptake assays the culture medium was aspirated and the cells were washed once …

Chain of Sodium- and chloride-dependent glycine transporter 1 (Homo sapiens) (P48067 whole entry, looked up): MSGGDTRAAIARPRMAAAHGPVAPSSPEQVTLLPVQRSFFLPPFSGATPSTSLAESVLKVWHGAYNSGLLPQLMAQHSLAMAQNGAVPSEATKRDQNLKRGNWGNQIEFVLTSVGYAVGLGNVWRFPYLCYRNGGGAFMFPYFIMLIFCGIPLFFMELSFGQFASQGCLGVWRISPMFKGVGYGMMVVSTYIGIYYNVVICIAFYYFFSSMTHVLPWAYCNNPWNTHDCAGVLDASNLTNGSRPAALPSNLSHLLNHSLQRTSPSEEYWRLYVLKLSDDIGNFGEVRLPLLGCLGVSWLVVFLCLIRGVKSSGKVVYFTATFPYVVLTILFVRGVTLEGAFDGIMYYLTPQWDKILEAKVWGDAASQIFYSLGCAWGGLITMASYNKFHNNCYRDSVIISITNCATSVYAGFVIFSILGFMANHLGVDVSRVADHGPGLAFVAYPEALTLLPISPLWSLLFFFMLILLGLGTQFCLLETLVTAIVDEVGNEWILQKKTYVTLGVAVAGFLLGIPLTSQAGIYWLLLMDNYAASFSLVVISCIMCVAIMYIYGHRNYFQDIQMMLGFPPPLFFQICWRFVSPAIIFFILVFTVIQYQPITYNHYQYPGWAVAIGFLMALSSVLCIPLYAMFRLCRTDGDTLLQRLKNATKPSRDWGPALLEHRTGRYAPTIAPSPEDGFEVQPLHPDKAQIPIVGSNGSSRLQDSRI

Q: Which Ki does the source give for `CNC1COc2ccc(N3CC(NS(=O)(=O)CC4CC4)C3)cc2C1Cc1ccccc1` (cis isomer) here?
A: < 0.01 µM
